Results published in patent US6379649B1, “Imidazo(1,2-a)pyridines as peripheral benzodiazepine receptor binding agents” (Australian Nuclear Science & Technology Organisation, priority 1998, dated 2002).

Assay: In vivo biodistribution of radiolabelled compounds in rats
Description: In vivo biodistribution of radiolabelled compounds of the invention indicated high uptake in the tissues which have known PBR sites. Tables 2 to 4 show the biodistribution of the compounds of Examples 1-3, in which the iodine atom is radiolabelled, when administered to rats.

CNC(=O)Cc1c(-c2ccc([123I])cc2)nc2ccc(Cl)cn12 [^123-I Example 1]
Biodistribution (% ID/g organ) Adrenals (5 Min): 4.51 ± 1.32 % ID/g organ | Biodistribution (% ID/g organ) Adrenals (15 Min): 7.8 ± 2.16 % ID/g organ | Biodistribution (% ID/g organ) Adrenals (24 Hrs): 0.22 ± 0.09 % ID/g organ | Biodistribution (% ID/g organ) Adrenals (30 Min): 11 ± 2.57 % ID/g organ | Biodistribution (% ID/g organ) Adrenals (60 Min): 11.3 ± 0.87 % ID/g organ | Biodistribution (% ID/g organ) Adrenals (180 Min): 9.84 ± 1.69 % ID/g organ | Biodistribution (% ID/g organ) Adrenals (240 Min): 6.78 ± 1.27 % ID/g organ | Biodistribution (% ID/g organ) Adrenals (360 Min): 5.7 ± 0.15 % ID/g organ | Biodistribution (% ID/g organ) Blood (5 Min): 0.25 ± 0.04 % ID/g organ | Biodistribution (% ID/g organ) Blood (15 Min): 0.16 ± 0.01 % ID/g organ | Biodistribution (% ID/g organ) Blood (24 Hrs): 0.01 ± 0.001 % ID/g organ | Biodistribution (% ID/g organ) Blood (30 Min): 0.12 ± 0.01 % ID/g organ | Biodistribution (% ID/g organ) Blood (60 Min): 0.1 ± 0.01 % ID/g organ | Biodistribution (% ID/g organ) Blood (180 Min): 0.07 ± 0.001 % ID/g organ | Biodistribution (% ID/g organ) Blood (240 Min): 0.06 ± 0.01 % ID/g organ | Biodistribution (% ID/g organ) Blood (360 Min): 0.05 ± 0.001 % ID/g organ | Biodistribution (% ID/g organ) Brain (5 Min): 0.11 ± 0.02 % ID/g organ | Biodistribution (% ID/g organ) Brain (15 Min): 0.08 ± 0.01 % ID/g organ | Biodistribution (% ID/g organ) Brain (24 Hrs): 0 % ID/g organ | Biodistribution (% ID/g organ) Brain (30 Min): 0.06 ± 0.01 % ID/g organ | Biodistribution (% ID/g organ) Brain (60 Min): 0.04 ± 0.001 % ID/g organ | Biodistribution (% ID/g organ) Brain (180 Min): 0.03 ± 0.001 % ID/g organ | Biodistribution (% ID/g organ) Brain (240 Min): 0.02 ± 0.01 % ID/g organ | Biodistribution (% ID/g organ) Brain (360 Min): 0.02 ± 0.001 % ID/g organ | Biodistribution (% ID/g organ) Heart (5 Min): 3.25 ± 0.58 % ID/g organ | Biodistribution (% ID/g organ) Heart (15 Min): 2.09 ± 0.09 % ID/g organ | Biodistribution (% ID/g organ) Heart (24 Hrs): 0.02 ± 0.001 % ID/g organ | Biodistribution (% ID/g organ) Heart (30 Min): 1.41 ± 0.14 % ID/g organ | Biodistribution (% ID/g organ) Heart (60 Min): 1.07 ± 0.09 % ID/g organ | Biodistribution (% ID/g organ) Heart (180 Min): 0.68 ± 0.09 % ID/g organ | Biodistribution (% ID/g organ) Heart (240 Min): 0.54 ± 0.05 % ID/g organ | Biodistribution (% ID/g organ) Heart (360 Min): 0.38 ± 0.02 % ID/g organ | Biodistribution (% ID/g organ) Kidney (5 Min): 1.8 ± 0.35 % ID/g organ | Biodistribution (% ID/g organ) Kidney (15 Min): 1.66 ± 0.13 % ID/g organ | Biodistribution (% ID/g organ) Kidney (24 Hrs): 0.03 ± 0.001 % ID/g organ | Biodistribution (% ID/g organ) Kidney (30 Min): 1.25 ± 0.09 % ID/g organ | Biodistribution (% ID/g organ) Kidney (60 Min): 0.97 ± 0.07 % ID/g organ | Biodistribution (% ID/g organ) Kidney (180 Min): 0.61 ± 0.02 % ID/g organ | Biodistribution (% ID/g organ) Kidney (240 Min): 0.5 ± 0.07 % ID/g organ | Biodistribution (% ID/g organ) Kidney (360 Min): 0.36 ± 0.01 % ID/g organ | Biodistribution (% ID/g organ) Liver (5 Min): 0.94 ± 0.12 % ID/g organ | Biodistribution (% ID/g organ) Liver (15 Min): 0.7 ± 0.07 % ID/g organ | Biodistribution (% ID/g organ) Liver (24 Hrs): 0.09 ± 0.01 % ID/g organ | Biodistribution (% ID/g organ) Liver (30 Min): 0.59 ± 0.04 % ID/g organ | Biodistribution (% ID/g organ) Liver (60 Min): 0.47 ± 0.02 % ID/g organ | Biodistribution (% ID/g organ) Liver (180 Min): 0.37 ± 0.01 % ID/g organ | Biodistribution (% ID/g organ) Liver (240 Min): 0.33 ± 0.04 % ID/g organ | Biodistribution (% ID/g organ) Liver (360 Min): 0.27 ± 0.01 % ID/g organ | Biodistribution (% ID/g organ) Lungs (5 Min): 2.81 ± 0.49 % ID/g organ | Biodistribution (% ID/g organ) Lungs (15 Min): 1.79 ± 0.18 % ID/g organ | Biodistribution (% ID/g organ) Lungs (24 Hrs): 0.02 ± 0.001 % ID/g organ | Biodistribution (% ID/g organ) Lungs (30 Min): 1.39 ± 0.14 % ID/g organ | Biodistribution (% ID/g organ) Lungs (60 Min): 0.97 ± 0.22 % ID/g organ | Biodistribution (% ID/g organ) Lungs (180 Min): 0.72 ± 0.05 % ID/g organ | Biodistribution (% ID/g organ) Lungs (240 Min): 0.63 ± 0.05 % ID/g organ | Biodistribution (% ID/g organ) Lungs (360 Min): 0.44 ± 0.07 % ID/g organ | Biodistribution (% ID/g organ) Olfactive bulbs (5 Min): 0.2 ± 0.02 % ID/g organ | Biodistribution (% ID/g organ) Olfactive bulbs (15 Min): 0.18 ± 0.03 % ID/g organ | Biodistribution (% ID/g organ) Olfactive bulbs (24 Hrs): 0.01 ± 0.001 % ID/g organ | Biodistribution (% ID/g organ) Olfactive bulbs (30 Min): 0.13 ± 0.02 % ID/g organ | Biodistribution (% ID/g organ) Olfactive bulbs (60 Min): 0.14 ± 0.001 % ID/g organ | Biodistribution (% ID/g organ) Olfactive bulbs (180 Min): 0.09 ± 0.02 % ID/g organ | Biodistribution (% ID/g organ) Olfactive bulbs (240 Min): 0.07 ± 0.001 % ID/g organ | Biodistribution (% ID/g organ) Olfactive bulbs (360 Min): 0.05 ± 0.001 % ID/g organ | Biodistribution (% ID/g organ) Testes (5 Min): 0.14 ± 0.03 % ID/g organ | Biodistribution (% ID/g organ) Testes (15 Min): 0.22 ± 0.06 % ID/g organ | Biodistribution (% ID/g organ) Testes (24 Hrs): 0.01 ± 0.001 % ID/g organ | Biodistribution (% ID/g organ) Testes (30 Min): 0.26 ± 0.05 % ID/g organ | Biodistribution (% ID/g organ) Testes (60 Min): 0.28 ± 0.05 % ID/g organ | Biodistribution (% ID/g organ) Testes (180 Min): 0.25 ± 0.01 % ID/g organ | Biodistribution (% ID/g organ) Testes (240 Min): 0.22 ± 0.03 % ID/g organ | Biodistribution (% ID/g organ) Testes (360 Min): 0.16 ± 0.03 % ID/g organ
